According to paper PMC11984586, “A novel spider toxin as a selective antagonist of the Kv1 subfamily of voltage-gated potassium channels through gating modulation” (The Journal of Biological Chemistry, 2025):
Bridge positions count the residues as written; N and C are the ends. Peptide text beside a SMILES is read from it.

Legend:
hKv1.5 = molecular target: T1, hKv1.5 (Homo sapiens, UniProt P22460); test: Whole-cell patch clamp, Kv1.5 ionic current in CHO-K1 cells; format: cell-based; conditions: +30 mV, 500 ms, holding −80 mV, mean ± SD, n = 4–7, read-out: IC50, inhibition of Kv1.5 current (full inhibition)
T1 construct: expressed in transfected cells; host or cells: CHO-K1
T1 sequence (P22460 whole entry): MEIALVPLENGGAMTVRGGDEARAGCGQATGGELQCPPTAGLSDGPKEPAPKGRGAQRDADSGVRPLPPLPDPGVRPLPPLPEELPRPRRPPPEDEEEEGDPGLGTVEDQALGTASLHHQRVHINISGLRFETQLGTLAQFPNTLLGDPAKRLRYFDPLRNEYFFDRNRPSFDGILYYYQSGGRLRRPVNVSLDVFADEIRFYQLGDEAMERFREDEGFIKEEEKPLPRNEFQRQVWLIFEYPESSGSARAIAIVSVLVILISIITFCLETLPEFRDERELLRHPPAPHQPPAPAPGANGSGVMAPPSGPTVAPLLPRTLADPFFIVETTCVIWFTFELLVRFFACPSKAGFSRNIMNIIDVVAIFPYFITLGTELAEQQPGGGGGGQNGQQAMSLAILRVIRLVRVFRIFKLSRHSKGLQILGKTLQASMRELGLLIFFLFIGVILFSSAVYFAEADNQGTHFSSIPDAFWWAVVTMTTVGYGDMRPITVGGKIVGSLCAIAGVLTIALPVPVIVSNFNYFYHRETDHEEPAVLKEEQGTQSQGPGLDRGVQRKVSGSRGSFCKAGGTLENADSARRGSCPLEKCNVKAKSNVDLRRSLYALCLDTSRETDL
Protocol: (§1) The cDNA of hKv1.1, hKv1.2, hKv1.3, rKv1.4, hKv1.5, mKv1.6, and hKv1.7 were subcloned into mammalian expression vectors pcDNA3.1 or pCMV-blank vectors, as well as other plasmids described previously ([35]). Channel mutants were generated by site-directed mutations. Briefly, the parental channel plasmid was amplified using a pair of oppositely directed primers harboring the designed mutation site, with KOD Fx (TOYOBO Co, Ltd). The resulting PCR mix was treated with FastDigest DpnI (Thermo Fisher Scientific) to remove the methylated template. Ten microliters of the digested product was then used to transform 100 μl E. coli DH5α competent cells. […]
(§2) CHO-K1 cells were selected for expressing Kv channels due to their lack of endogenous Kv channels, while HEK293 or ND7/23 cells were used for Nav and Cav channel expression. […] After 4 to 6 h transfection, cells were seeded onto poly-lysine–coated coverslips, and 24 to 36 h later, transfected cells were ready for patch-clamp analysis. […]
(§3) For Kv current recordings, the bath solution contained (in mM) the following: 140 NaCl, 5 KCl, 1 MgCl2, 2 CaCl2, 10 glucose, and 10 Hepes (pH 7.3, adjusted with NaOH), and the pipette solution contained (in mM) the following: 140 KCl, 2.5 MgCl2, 11 EGTA, and 10 Hepes (pH 7.3, adjusted with KOH). […] The steady-state fast inactivation of Kv1.3 was measured using a two-pulses protocol. […]

hKv1.7 = molecular target: T2, hKv1.7 (Homo sapiens, UniProt Q96RP8); test: Whole-cell patch clamp, Kv1.7 ionic current in CHO-K1 cells; format: cell-based; conditions: mean ± SD
T2 construct: expressed in transfected cells; host or cells: CHO-K1
T2 sequence (Q96RP8 whole entry): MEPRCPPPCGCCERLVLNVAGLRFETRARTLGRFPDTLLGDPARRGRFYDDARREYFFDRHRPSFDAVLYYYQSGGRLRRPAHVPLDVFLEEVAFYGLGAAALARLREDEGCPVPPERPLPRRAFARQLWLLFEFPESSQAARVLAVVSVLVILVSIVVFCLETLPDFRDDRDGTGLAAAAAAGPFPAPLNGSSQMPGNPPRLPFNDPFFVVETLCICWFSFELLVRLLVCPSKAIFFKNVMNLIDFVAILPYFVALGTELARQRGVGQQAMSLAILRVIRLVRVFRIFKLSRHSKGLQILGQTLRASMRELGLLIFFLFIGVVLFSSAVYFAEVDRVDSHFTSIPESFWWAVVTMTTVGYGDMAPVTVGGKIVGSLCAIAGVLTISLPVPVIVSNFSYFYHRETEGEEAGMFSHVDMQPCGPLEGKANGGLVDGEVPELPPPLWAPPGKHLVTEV
Protocol: as §1, §2, §3

Kv1.3 S359A mutant = test: Whole-cell patch clamp, Kv1.3 alanine mutant; format: cell-based, human; conditions: 100 nM MrVIII, +30 mV; n = 4–7
Protocol: MrVIII inhibits Kv1 channels by stabilizing the voltage sensor in its resting state. […] To investigate this hypothesis, we constructed a series of alanine mutants in the S3-S4 region of the Kv1.3 channel, covering residues I336 to L363, to identify critical interactions between the peptide and the channel (Fig. 6A). […] For the remaining mutants that retained functional current expression, we evaluated the inhibitory activity of 100 nM MrVIII. […] The lack of conserved multiple interaction sites may explain the absence of activity on other Kv subfamily channels (Fig. S3). In summary, this study identified key amino acid residues in the S3-S4 region of the Kv1.3 channel that interact with MrVIII, providing a foundation for further exploration into the peptide's mechanism of action.
The cDNA of hKv1.1, hKv1.2, hKv1.3, rKv1.4, hKv1.5, mKv1.6, and hKv1.7 were subcloned into mammalian expression vectors pcDNA3.1 or pCMV-blank vectors, as well as other plasmids described previously ([35]). Channel mutants were generated by site-directed mutations. Briefly, the parental channel plasmid was amplified using a pair of oppositely directed primers harboring the designed mutation site, with KOD Fx (TOYOBO Co, Ltd). The resulting PCR mix was treated with FastDigest DpnI (Thermo Fisher Scientific) to remove the methylated template. Ten microliters of the digested product was then used to transform 100 μl E. coli DH5α competent cells. Transformants were randomly picked and sequenced to confirm the presence of the intended mutation.
(§4) CHO-K1 cells were selected for expressing Kv channels due to their lack of endogenous Kv channels, while HEK293 or ND7/23 cells were used for Nav and Cav channel expression. CHO-K1 cells were cultured in a Dulbecco's modified Eagle's medium/Ham's F-12 nutrient mixture (DMEM-F12) medium, and HEK293T and ND7/23 cells in DMEM medium, all supplemented with 10% fetal bovine serum and 1% penicillin-streptomycin (all from Gibco, Thermo Fisher Scientific, Inc) under standard conditions (37 °C, 5% CO2, and saturated humidity). These cell lines were purchased from Stem Cell Bank, Chinese Academy of Sciences. Channel plasmids were cotransfected with pEGFP-N1 (encoding GFP) into the respective cells using lipofectamine 2000, following the manufacturer's instructions (Invitrogen, Thermo Fisher Scientific, Inc.). Nav1.9-GFP plasmid was transfected into ND7/23 using the X-tremeGENE HP DNA Transfection Reagent (Roche). After 4 to 6 h transfection, cells were seeded onto poly-lysine–coated coverslips, and 24 to 36 h later, transfected cells were ready for patch-clamp analysis.
(§5) Patch clamp experiments were conducted using an electrophysiology platform comprising a MultiClamp 700B amplifier and an Axon Digidata 1550 AD/DA convertor (Axon Instruments). Data acquisition was performed with pClamp 10.5 software (Axon Instruments). All experiments were performed at room temperature.
For Kv current recordings, the bath solution contained (in mM) the following: 140 NaCl, 5 KCl, 1 MgCl2, 2 CaCl2, 10 glucose, and 10 Hepes (pH 7.3, adjusted with NaOH), and the pipette solution contained (in mM) the following: 140 KCl, 2.5 MgCl2, 11 EGTA, and 10 Hepes (pH 7.3, adjusted with KOH). Series resistance was maintained below 10 MΩ and compensated to 80%. Concentration–response curves were fitted by the Hill equation to determine the toxin's potency. Whole cell conductance (G) at each depolarizing voltage (V) was determined using the equation: G = I/(V−Vrev), where I is the current amplitude, and Vrev is the reversal potential. The reversal potential for K^+ current was estimated to be −85.6 mV using the Nernst equation. G-V curves were obtained by plotting the normalized conductance as a function of V and fitted by the Boltzmann equation: y = 1/(1+ exp((Va-V)/k)), which Va is the midpoint voltage, V is the test potential, and k is the slope factor. The steady-state fast inactivation of Kv1.3 was measured using a two-pulses protocol. […]

Cav1.3 = test: Selectivity patch clamp, non-Kv1 channels; format: cell-based; conditions: 10 μM MrVIII; n = 3–5
Protocol: as §4, §5

Cav2.2 = test: Selectivity patch clamp, non-Kv1 channels; format: cell-based; conditions: 10 μM MrVIII; n = 3–5
Protocol: as §4, §5

Cav3.2-3.3 = test: Selectivity patch clamp, non-Kv1 channels; format: cell-based; conditions: 10 μM MrVIII; n = 3–5
Protocol: as §4, §5

Nav1.2 = test: Selectivity patch clamp, non-Kv1 channels; format: cell-based; conditions: 10 μM MrVIII; n = 3–5
Protocol: as §4, §5

Nav1.4-1.5 = test: Selectivity patch clamp, non-Kv1 channels; format: cell-based; conditions: 10 μM MrVIII; n = 3–5
Protocol: as §4, §5

Nav1.7-1.9 = test: Selectivity patch clamp, non-Kv1 channels; format: cell-based; conditions: 10 μM MrVIII; n = 3–5
Protocol: as §4, §5

SMILES: CC[C@H](C)[C@@H]1NC(=O)[C@H](Cc2ccc(O)cc2)NC(=O)[C@H](CCC(N)=O)NC(=O)[C@@H]2CCCN2C(=O)[C@@H]2CSSC[C@H](NC(=O)[C@H](C)NC(=O)[C@H](CO)NC(=O)[C@H](CCC(=O)O)NC(=O)[C@H](CCC(=O)O)NC(=O)[C@@H](N)[C@@H](C)O)C(=O)NCC(=O)NCC(=O)N[C@@H](Cc3ccccc3)C(=O)N[C@@H](CC(N)=O)C(=O)N[C@@H](C)C(=O)N[C@@H](CCCNC(=N)N)C(=O)N[C@H]3CSSC[C@H](NC1=O)C(=O)N[C@@H](CCCCN)C(=O)NCC(=O)N[C@@H](Cc1c[nH]c4ccccc14)C(=O)N[C@@H](CCCNC(=N)N)C(=O)N[C@@H]([C@@H](C)O)C(=O)N[C@@H](CCCCN)C(=O)N[C@@H](CCCNC(=N)N)C(=O)N[C@H](C(=O)N[C@@H](CC(C)C)C(=O)N[C@@H](CC(N)=O)C(=O)N1CCC[C@H]1C(=O)O)CSSC[C@H](NC(=O)[C@H](CCCCN)NC(=O)[C@H](Cc1c[nH]cn1)NC(=O)[C@H](CC(C)C)NC(=O)[C@@H]1CCCN1C3=O)C(=O)N2 [MrVIII] (H-TEESACGGFNARCPLHKCCPQYICKGWRTKRCLNP-OH; disulfide 6-19, 13-24, 18-32; N-terminus and C-terminus assumed)
- IC50 (hKv1.5): 5.7 ± 2.2 nM
- inhi%(495 ms), Kv1.7 current (hKv1.7; 10 μM (saturating), current at 495 ms, +30 mV): 33.3 ± 3.0%
- IC50 (hKv1.7; current measured at 50 ms of a 500 ms depolarization to +30 mV, n = 4–7): 199 ± 50.3 nM
- reduction in inhibitory potency vs WT Kv1.3, S359A (Kv1.3 S359A mutant): more than 5 fold
- inhibition of Cav1.3 current (Cav1.3): did not remarkably inhibit
- inhibition of Cav2.2 current (Cav2.2): did not remarkably inhibit
- inhibition of Cav3.2-3.3 currents (Cav3.2-3.3): did not remarkably inhibit
- inhibition of Nav1.2 current (Nav1.2): did not remarkably inhibit
- inhibition of Nav1.4-1.5 currents (Nav1.4-1.5): did not remarkably inhibit
- inhibition of Nav1.7-1.9 currents (Nav1.7-1.9): did not remarkably inhibit
